Measured values: PubChem BioAssay (NCI)
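Where inhibition never reached the appropriate level, the endpoint shown equals the highest concentration tested. Otherwise, values were interpolated linearly from a five-concentration, 48-hour dose response in 96-well plates. TGI is the concentration that stops growth completely.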

Key:
Assay in all cases: NCI anticancer screen, dose series, 48 h
[1] = test system: IGROV1 ovarian
[2] = test system: HOP-92 NSCLC
[3] = test system: K-562 leukemia
[4] = test system: A549 NSCLC
[5] = test system: 786-0 renal
[6] = test system: RXF 393 renal
[7] = test system: ACHN renal
[8] = test system: COLO 205 colon
[9] = test system: OVCAR-4 ovarian
[10] = test system: HL-60(TB) leukemia
[11] = test system: OVCAR-8 ovarian
[12] = test system: OVCAR-5 ovarian
[13] = test system: SF-295 CNS
[14] = test system: HOP-62 NSCLC
[15] = test system: UACC-257 melanoma
[16] = test system: SF-539 CNS
[17] = test system: DMS 273 small cell lung
[18] = test system: HOP-18 NSCLC
[19] = test system: CCRF-CEM leukemia
[20] = test system: NCI-H460 lung
[21] = test system: SK-MEL-2 melanoma
[22] = test system: HT29 colon
[23] = test system: SK-OV-3 ovarian
[24] = test system: SW-620 colon
[25] = test system: UACC-62 melanoma
[26] = test system: HCT-15 colon
[27] = test system: LXFL 529 NSCLC
[28] = test system: KM20L2 colon
[29] = test system: SR leukemia
[30] = test system: TK-10 renal
[31] = test system: SN12C renal
[32] = test system: NCI-H23 lung
[33] = test system: M19-MEL melanoma
[34] = test system: HCC-2998 colon
[35] = test system: RPMI-8226 leukemia
[36] = test system: SNB-19 CNS
[37] = test system: KM12 colon
[38] = test system: DLD-1 colon
[39] = test system: LOX IMVI melanoma
[40] = test system: MOLT-4 leukemia
[41] = test system: XF 498 CNS
[42] = test system: EKVX NSCLC
[43] = test system: M14 melanoma
[44] = test system: NCI-H226 lung
[45] = test system: U251 CNS
[46] = test system: MALME-3M melanoma
[47] = test system: A498 renal
[48] = test system: UO-31 renal
[49] = test system: NCI-H522 lung
[50] = test system: SF-268 CNS
[51] = test system: HCT-116 colon
[52] = test system: SK-MEL-28 melanoma
[53] = test system: OVCAR-3 ovarian
[54] = test system: DMS 114 small cell lung

For `C[C@@H](CC(O)C1OC1(C)C)[C@@H]1CC[C@]2(C)C3=CCC4C(C)(C)C(O)CC[C@]4(C)C3CCC12C` (some centres undefined), the TGI [1] was > 100 µM, the TGI [2] was 41.9 µM and the TGI [3] was 73.1 µM. The TGI [4] was 32.9 µM, the TGI [5] was 33.9 µM and the TGI [6] was 42.1 µM. The TGI [7] was 88.8 µM, the TGI [8] was 60.7 µM and the TGI [9] was > 100 µM. For the same molecule, the TGI [10] was 24.9 µM, the TGI [11] was > 100 µM and the TGI [12] was > 100 µM. The TGI [13] was 40.8 µM, the TGI [14] was > 100 µM and the TGI [15] was 41.2 µM. It also gave a TGI [16] of 54.4 µM, a TGI [17] of 29.2 µM and a TGI [18] of 80.7 µM. The TGI [19] was > 100 µM, the TGI [20] was > 100 µM and the TGI [21] was 57.4 µM. The TGI [22] was 24.8 µM, the TGI [23] was 58.9 µM and the TGI [24] was > 100 µM. The TGI [25] was 33.6 µM, the TGI [26] was > 100 µM and the TGI [27] was 25.6 µM. For the same molecule, the TGI [28] was 48.6 µM, the TGI [29] was > 100 µM and the TGI [30] was 61.6 µM. The TGI [31] was > 100 µM, the TGI [32] was 75.4 µM and the TGI [33] was 49.9 µM. The TGI [34] was > 100 µM, the TGI [35] was > 100 µM and the TGI [36] was > 100 µM. For the same molecule, the TGI [37] was > 100 µM, the TGI [38] was > 100 µM and the TGI [39] was > 100 µM. For the same molecule, the TGI [40] was > 100 µM, the TGI [41] was 46.4 µM and the TGI [42] was > 100 µM. For the same molecule, the TGI [43] was 42.1 µM, the TGI [44] was 45.3 µM and the TGI [45] was > 100 µM. The TGI [46] was 31.1 µM, the TGI [47] was 77.3 µM and the TGI [48] was 63.5 µM. The TGI [49] was 32.6 µM, the TGI [50] was 85.4 µM and the TGI [51] was 31.3 µM. The TGI [52] was 41.9 µM and the TGI [53] was > 100 µM.
In the case of `CC(=O)OC(C[C@H](C)[C@@H]1CC[C@]2(C)C3=CCC4C(C)(C)C(=O)CC[C@]4(C)C3CCC12C)C1OC1(C)C` (some centres undefined), the TGI [1] was > 100 µM, the TGI [2] was 24.3 µM and the TGI [3] was > 100 µM. The TGI [4] was > 100 µM, the TGI [5] was 43.2 µM and the TGI [6] was 28.6 µM. For the same molecule, the TGI [7] was 31.9 µM, the TGI [8] was 48.3 µM and the TGI [9] was > 100 µM. The TGI [10] was 29.5 µM, the TGI [11] was > 100 µM and the TGI [12] was 31.8 µM. The TGI [13] was > 100 µM, the TGI [14] was 42.7 µM and the TGI [15] was 75.1 µM. The TGI [16] was > 100 µM, the TGI [17] was 77.6 µM and the TGI [18] was > 100 µM. The TGI [19] was > 100 µM, the TGI [21] was > 100 µM and the TGI [22] was 42.7 µM. For the same molecule, the TGI [23] was 25.7 µM, the TGI [24] was > 100 µM and the TGI [25] was > 100 µM. The TGI [54] was > 100 µM, the TGI [26] was > 100 µM and the TGI [27] was > 100 µM. For the same molecule, the TGI [28] was > 100 µM, the TGI [30] was 35.4 µM and the TGI [32] was 86.4 µM. For the same molecule, the TGI [33] was > 100 µM, the TGI [34] was 30.7 µM and the TGI [35] was > 100 µM. The TGI [36] was > 100 µM, the TGI [37] was 47.4 µM and the TGI [38] was > 100 µM. For the same molecule, the TGI [39] was > 100 µM, the TGI [40] was > 100 µM and the TGI [41] was 43.8 µM. The TGI [42] was > 100 µM, the TGI [43] was 55.4 µM and the TGI [44] was 29 µM. It also gave a TGI [45] of 66.8 µM, a TGI [46] of 89.2 µM and a TGI [47] of 31.7 µM. For the same molecule, the TGI [48] was 25.8 µM, the TGI [49] was 36.5 µM and the TGI [50] was 83.2 µM. The TGI [51] was 94.1 µM, the TGI [52] was 88.2 µM and the TGI [53] was > 100 µM.
